Test [1] in a line: Compound was evaluated for the inhibition of […] penicillopepsin; Value is time-dependent inhibition (TDI) with T1/2 > 30 s).
The target in another test is T1, Rhizopuspepsin (Rhizopus microsporus var. chinensis, UniProt P06026).
T1 sequence (P06026 whole entry): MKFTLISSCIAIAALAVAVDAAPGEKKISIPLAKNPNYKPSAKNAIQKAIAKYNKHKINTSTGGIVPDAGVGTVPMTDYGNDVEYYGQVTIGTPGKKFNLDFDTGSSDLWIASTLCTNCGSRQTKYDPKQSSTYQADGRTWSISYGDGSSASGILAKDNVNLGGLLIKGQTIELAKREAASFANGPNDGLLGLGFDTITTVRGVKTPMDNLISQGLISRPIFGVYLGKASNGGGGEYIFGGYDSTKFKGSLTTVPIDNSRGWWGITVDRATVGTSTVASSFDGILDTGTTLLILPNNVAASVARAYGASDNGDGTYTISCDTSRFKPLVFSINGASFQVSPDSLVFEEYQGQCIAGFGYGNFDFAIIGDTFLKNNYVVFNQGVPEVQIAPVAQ
Put plainly: Inhibition of Rhizopus chinensis pepsin.

Test [2] can be described thus: Compound was evaluated for the inhibition of porcine penicillopepsin.
A further test deals with Pepsin A (Sus scrofa, UniProt P00791). As to the kind of experiment: Compound was evaluated for the inhibition of porcine pepsin.
The nature of test [3]: Compound was evaluated for the inhibition of […] penicillopepsin; ( Value is time-dependent inhibition (TDI) with T1/2 > 30 s.).

Square brackets hold non-standard residues; d marks the D form. Peptide text beside a SMILES is read from it. * marks the point of attachment. ξ: configuration not given here. Sta = CC(C)C[C@H](N)[C@@H](O)CC(=O)O; Isovaleryl = CC(C)CC(=O)*; ξF = NC(Cc1ccccc1)C(=O)O

Pepsin A, sequence (P00791 whole entry): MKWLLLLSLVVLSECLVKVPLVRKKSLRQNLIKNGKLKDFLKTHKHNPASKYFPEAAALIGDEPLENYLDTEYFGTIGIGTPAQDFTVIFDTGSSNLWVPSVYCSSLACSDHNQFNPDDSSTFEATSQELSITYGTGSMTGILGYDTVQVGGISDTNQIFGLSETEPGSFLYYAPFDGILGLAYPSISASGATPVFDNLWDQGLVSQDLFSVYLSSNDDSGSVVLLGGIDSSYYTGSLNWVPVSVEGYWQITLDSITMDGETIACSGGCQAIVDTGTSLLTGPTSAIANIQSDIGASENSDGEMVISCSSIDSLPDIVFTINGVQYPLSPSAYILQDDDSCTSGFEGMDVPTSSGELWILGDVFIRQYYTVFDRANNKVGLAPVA

For the molecule `CCOC(=O)CC(O)[C@H](CCCN)NC(=O)[C@H](NC(=O)C(NC(=O)CC(C)C)C(C)C)C(C)C` (stereo partly specified), the Ki in test [1] turned out to be 1.1 nM; on Rhizopuspepsin, 47 nM.
`CCOC(=O)C[C@H](O)[C@H](CC(C)C)NC(=O)[C@@H](NC(=O)[C@@H](NC(=O)CC(C)C)C(C)C)C(C)C` (Isovaleryl-Val-Val-[Sta]-OEt): the Ki in test [2] was 47 nM; at Rhizopuspepsin, 42 nM.
Regarding `CCOC(=O)C[C@H](O)[C@H](CCCCN)NC(=O)[C@H](NC(=O)C(NC(=O)CC(C)C)C(C)C)C(C)C` (stereo partly specified), the Ki on Rhizopuspepsin turned out to be 33 nM.
Turning to `CCOC(=O)C[C@H](O)[C@H](CCCCNC(C)=O)NC(=O)[C@H](NC(=O)C(NC(=O)CC(C)C)C(C)C)C(C)C` (stereo partly specified), the Ki amounted to 100 nM in test [2], 29 nM at Rhizopuspepsin and 1900 nM on Pepsin A.
On to `COC(=O)C(Cc1ccccc1)NC(=O)C[C@H](O)[C@H](CC(C)C)NC(=O)[C@@H](NC(=O)[C@@H](NC(=O)CC(C)C)C(C)C)C(C)C` (stereo partly specified) (Isovaleryl-VV[Sta][ξF]-OMe), for which the figures for the Ki (in test [3]; at Rhizopuspepsin) were 1.3 nM and 11 nM, respectively.
`COC(=O)C(Cc1ccccc1)NC(=O)C[C@H](O)[C@H](CCCCN)NC(=O)[C@H](NC(=O)C(NC(=O)CC(C)C)C(C)C)C(C)C` (stereo partly specified) had a Ki in test [3] of 0.08 nM.

For the origin of these results see ChEMBL document CHEMBL1123668, “Inhibition of aspartic proteinases by peptides containing lysine and ornithine side-chain analogues of statine” (J Med Chem, 1987).
